Legend:
PC-3 = assay: Cellular proliferation assay (Alamar blue), PC-3; type: cell-based; conditions: PC-3 cells, 72 hours with compound, 10% FCS; for IC50: Homo sapiens, PC-3, 72 h, read-out: pIC50 PC-3 (converted)
How it was run: (§1)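 Proliferation was assessed over 72 h of compound treatment, following 24 h of seeding without compound, under 10% FCS, 37° C. and 5% CO2. Fluorescent resazurin product was measured and compared with control cells.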

PLK4 (h) = PLK4 (h) (Homo sapiens, UniProt O00444); assay: PLK-4 human kinase assay (SPA); type: biochemical; conditions: for IC50: read-out: PLK4 pIC50 (converted)
PLK4 (h), sequence (O00444 whole entry): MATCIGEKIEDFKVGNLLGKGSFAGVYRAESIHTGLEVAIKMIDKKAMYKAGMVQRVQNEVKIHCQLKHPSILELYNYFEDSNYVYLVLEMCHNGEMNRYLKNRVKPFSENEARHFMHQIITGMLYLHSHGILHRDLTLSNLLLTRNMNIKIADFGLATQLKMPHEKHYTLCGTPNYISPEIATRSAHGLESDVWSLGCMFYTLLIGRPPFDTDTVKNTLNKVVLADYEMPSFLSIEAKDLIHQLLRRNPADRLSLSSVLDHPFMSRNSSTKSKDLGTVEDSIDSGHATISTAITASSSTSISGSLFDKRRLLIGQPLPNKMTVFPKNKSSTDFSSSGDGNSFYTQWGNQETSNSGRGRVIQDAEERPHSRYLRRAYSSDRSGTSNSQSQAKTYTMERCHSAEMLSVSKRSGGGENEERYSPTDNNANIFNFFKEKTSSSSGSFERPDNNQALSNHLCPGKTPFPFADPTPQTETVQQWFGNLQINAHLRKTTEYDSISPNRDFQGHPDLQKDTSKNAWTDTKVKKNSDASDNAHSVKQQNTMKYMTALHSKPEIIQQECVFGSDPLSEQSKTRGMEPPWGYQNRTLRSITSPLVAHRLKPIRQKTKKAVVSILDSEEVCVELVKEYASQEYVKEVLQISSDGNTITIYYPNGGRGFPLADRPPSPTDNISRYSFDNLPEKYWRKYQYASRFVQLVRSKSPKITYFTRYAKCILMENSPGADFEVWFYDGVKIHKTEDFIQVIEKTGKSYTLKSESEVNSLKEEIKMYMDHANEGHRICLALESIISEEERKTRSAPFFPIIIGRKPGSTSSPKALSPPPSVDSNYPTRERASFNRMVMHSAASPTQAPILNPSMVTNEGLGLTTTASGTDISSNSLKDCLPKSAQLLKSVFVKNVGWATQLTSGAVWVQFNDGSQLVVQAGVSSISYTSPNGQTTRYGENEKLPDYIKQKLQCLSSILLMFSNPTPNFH
How it was run: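 Radiometric readout: 33P-labelled peptide captured on streptavidin SPA beads after EDTA stop, imaged by Leadseeker. Reaction ran 60 min at room temperature in Hepes pH 8.0 buffer. It contained 1 μM ATP with 2 nM [γ-33P]ATP, 10 μM biotinylated peptide and PLK4 (h) at 19 μg/ml.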

AuroraB (h) = AuroraB (h) (Homo sapiens, UniProt Q96GD4); assay: Aurora-B human kinase assay (SPA); type: biochemical; conditions: for IC50: read-out: AuroraB pIC50 (converted)
AuroraB (h), sequence (Q96GD4 whole entry): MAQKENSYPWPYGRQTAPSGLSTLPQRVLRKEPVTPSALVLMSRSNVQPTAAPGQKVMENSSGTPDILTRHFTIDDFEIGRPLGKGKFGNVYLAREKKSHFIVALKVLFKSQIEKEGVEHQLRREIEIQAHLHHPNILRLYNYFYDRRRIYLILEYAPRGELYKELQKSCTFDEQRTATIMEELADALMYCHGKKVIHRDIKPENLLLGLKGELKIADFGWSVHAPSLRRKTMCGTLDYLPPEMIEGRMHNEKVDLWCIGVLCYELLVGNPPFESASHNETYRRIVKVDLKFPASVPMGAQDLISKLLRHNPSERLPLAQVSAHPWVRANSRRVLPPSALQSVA
How it was run: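 Scintillation proximity assay: AuroraB (h) at 0.5 μg/ml with 3 μM biotinylated peptide, 0.5 μM ATP and 2.2 nM [γ-33P]ATP in 60 mM Hepes pH 7.5, 3 mM MgCl2, 3 mM MnCl2, 2 mM DTT. 60 min at room temperature, EDTA stop, streptavidin PVT beads read on Leadseeker.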

CDK1/CyclinB (h) = CDK1/CyclinB (h) (Homo sapiens, UniProt P06493); assay: CDK1/CyclinB human kinase assay (FRET); type: biochemical; conditions: for IC50: read-out: CDK1 pIC50 (converted)
CDK1/CyclinB (h), sequence (P06493 whole entry): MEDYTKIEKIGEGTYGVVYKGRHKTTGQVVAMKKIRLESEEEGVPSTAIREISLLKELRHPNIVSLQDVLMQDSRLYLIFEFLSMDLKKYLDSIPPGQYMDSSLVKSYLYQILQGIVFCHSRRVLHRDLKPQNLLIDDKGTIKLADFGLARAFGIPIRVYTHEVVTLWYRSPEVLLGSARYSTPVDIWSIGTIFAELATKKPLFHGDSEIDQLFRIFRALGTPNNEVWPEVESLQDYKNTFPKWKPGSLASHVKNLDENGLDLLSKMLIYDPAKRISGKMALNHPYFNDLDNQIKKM
CDK1/CyclinB (h), sequence (P14635 whole entry partner): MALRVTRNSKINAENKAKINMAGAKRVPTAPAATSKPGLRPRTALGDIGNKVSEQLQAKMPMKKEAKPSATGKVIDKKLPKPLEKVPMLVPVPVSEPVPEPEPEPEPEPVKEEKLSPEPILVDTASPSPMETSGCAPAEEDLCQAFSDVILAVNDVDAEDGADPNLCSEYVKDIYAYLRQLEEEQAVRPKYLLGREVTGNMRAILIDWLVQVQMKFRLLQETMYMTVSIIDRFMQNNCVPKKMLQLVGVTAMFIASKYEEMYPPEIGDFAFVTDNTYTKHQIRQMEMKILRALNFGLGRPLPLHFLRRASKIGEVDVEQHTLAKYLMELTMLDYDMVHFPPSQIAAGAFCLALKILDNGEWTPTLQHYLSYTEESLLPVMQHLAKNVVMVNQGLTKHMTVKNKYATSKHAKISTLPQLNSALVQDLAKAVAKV
How it was run: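 Z'-LYTE FRET format: 0.2 μg/ml enzyme with 2 μM Ser/Thr peptide 12 and 10 μM ATP in 50 mM Hepes pH 7.5, 10 mM MgCl2, 1 mM EGTA, 0.01% Brij-35, 60 min at room temperature. Protease development 60 min; coumarin/fluorescein emission ratio (460/538 nm, excitation 390 nm) reports phosphorylation.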

MDA/MB231 = assay: Cellular proliferation assay (Alamar blue), MDA/MB231; type: cell-based; conditions: MDA/MB231 cells, 72 hours with compound, 10% FCS; for IC50: Homo sapiens, MDA-MB-231, 72 h, read-out: pIC50 MDA/MB231 (converted)
How it was run: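 Viable cell counts come from an Alamar blue assay: resazurin 9 μg/ml plus 90 μM K-ferrocyanide and 90 μM K-ferricyanide, incubated 24 h for MDA-MB-231 or 4 h for H460, with fluorescence read at 544/590 nm. Compound treatment lasted 72 h in 10% FCS after 24 h seeding.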

GSK3β (h) = GSK3β (h) (Homo sapiens, UniProt P49841); assay: GSK-3β human kinase assay (SPA); type: biochemical; conditions: for IC50: read-out: GSK3B pIC50 (converted)
GSK3β (h), sequence (P49841 whole entry): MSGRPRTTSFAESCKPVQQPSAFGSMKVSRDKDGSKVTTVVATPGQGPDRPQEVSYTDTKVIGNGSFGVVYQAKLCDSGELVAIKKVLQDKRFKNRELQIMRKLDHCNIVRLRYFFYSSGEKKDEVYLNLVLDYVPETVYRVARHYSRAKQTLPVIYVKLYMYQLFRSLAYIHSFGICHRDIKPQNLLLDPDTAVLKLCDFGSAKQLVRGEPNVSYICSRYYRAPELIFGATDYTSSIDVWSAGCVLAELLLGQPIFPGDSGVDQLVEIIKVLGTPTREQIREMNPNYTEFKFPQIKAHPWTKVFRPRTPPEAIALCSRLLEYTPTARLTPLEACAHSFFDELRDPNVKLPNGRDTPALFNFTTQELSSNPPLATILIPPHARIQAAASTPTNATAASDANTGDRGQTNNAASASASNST
How it was run: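 Radiometric SPA read-out: after EDTA stop, biotinylated 33P-labelled peptide bound streptavidin PVT beads and was imaged on Leadseeker. Reaction: 60 min, room temperature, GSK3β (h) at 1 μg/ml, 1 μM substrate peptide, 1 μM ATP with 2 nM [γ-33P]ATP, Tris pH 7.4/MgCl2/DTT buffer.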

H1299 = assay: Cellular proliferation assay (Alamar blue), H1299; type: cell-based; conditions: H1299 cells, 72 hours with compound, 10% FCS; for IC50: Homo sapiens, NCI-H1299, 72 h, read-out: pIC50 H1299 (converted)
How it was run: as §1

A2780 = assay: Cellular proliferation assay (Alamar blue), A2780; type: cell-based; conditions: A2780 cells, 72 hours with compound, 10% FCS; for IC50: Homo sapiens, A2780, 72 h, read-out: pIC50 A2780 (converted)
How it was run: as §1

SKOV3 = assay: Cellular proliferation assay (Alamar blue), SKOV3; type: cell-based; conditions: 72 hours with compound, 10% FCS; for pIC50 SKOV3: SKOV3 cells; for IC50: Homo sapiens, SK-OV-3, SKOV3 cells, read-out: pIC50 SKOV3 (converted)
Procedure: (§2) […] functional properties of these compounds was tested in cellular proliferation assays on a panel of different cell lines in the presence of 10% FCS serum (37° C. and 5% (v/v) CO2). In a first step these cells were seeded and incubated for 24 hours in the absence of compound. In the second step the cells were incubated for 72 hours with the compounds to be tested for 72 hours. The viable cell number was finally assessed in a standard Alamar blue cell viability assay.
(§3) The viable cell number was assessed by incubation for either 4 h (HCT-116, H1299, H460) 6 h (SKOV3, HT29, U87-MG, Colo205) or 24 h (A2780, PC3, MDA-MB-231, A549, MCF-7) with Alamar blue (Resazurin 9 μg/ml, K-Ferrocyanide 90 μM K-Ferricyanide 90 μM) and the converted fluorescent product was quantified on a fluorescent plate readed (544 nm/590 nm). Effect of the compounds is calculated as of on control cells.

U87MG = assay: Cellular proliferation assay (Alamar blue), U87MG; type: cell-based; conditions: U87MG cells, 72 hours with compound, 10% FCS; for IC50: Homo sapiens, U-87 MG, 72 h, read-out: pIC50 U87MG (converted)
How it was run: as §1

HCT-116 = assay: Cellular proliferation assay (Alamar blue), HCT-116; type: cell-based; conditions: HCT-116 cells, 72 hours with compound, 10% FCS; for IC50: Homo sapiens, HCT-116, 72 h, read-out: pIC50 HCT-116 (converted)
How it was run: as §1

Colo205 = assay: Cellular proliferation assay (Alamar blue), Colo205; type: cell-based; conditions: Homo sapiens, COLO 205, Colo205 cells, 72 hours with compound, 10% FCS, read-out: pIC50 Colo205 (converted)
Procedure: as §2, §3

SK-N-SH = assay: Cellular proliferation assay (Alamar blue), SK-N-SH; type: cell-based; conditions: Homo sapiens, SK-N-SH cells, 72 hours with compound, 10% FCS, read-out: pIC50 SK-N-SH (converted)
Procedure: as §2, §3

MCF-7 = assay: Cellular proliferation assay (Alamar blue), MCF-7; type: cell-based; conditions: Homo sapiens, MCF7, MCF-7 cells, 72 hours with compound, 10% FCS, read-out: pIC50 MCF-7 (converted)
Procedure: as §2, §3

A549 = assay: Cellular proliferation assay (Alamar blue), A549; type: cell-based; conditions: Homo sapiens, A549 cells, 72 hours with compound, 10% FCS, read-out: pIC50 A549 (converted)
Procedure: as §2, §3

HT-29 = assay: Cellular proliferation assay (Alamar blue), HT-29; type: cell-based; conditions: Homo sapiens, HT-29 cells, 72 hours with compound, 10% FCS, read-out: pIC50 HT-29 (converted)
Procedure: as §2, §3

DU-145 = assay: Cellular proliferation assay (Alamar blue), DU-145; type: cell-based; conditions: Homo sapiens, DU-145 cells, 72 hours with compound, 10% FCS, read-out: pIC50 DU-145 (converted)
Procedure: as §2, §3

CN1CCN(c2ccc3cc2CN(C)CCCCCC(=O)N(C)CCCNc2ncnc4c2C(=CN3)C(=O)N4)CC1 (mixture of isomers) [Compound 117]
pIC50 PC-3 (PC-3): <5
PLK4 pIC50 (PLK4 (h)): 6.5
AuroraB pIC50 (AuroraB (h)): <5
CDK1 pIC50 (CDK1/CyclinB (h)): <5
pIC50 MDA/MB231 (MDA/MB231): 5.06
GSK3B pIC50 (GSK3β (h)): 5.58
pIC50 H1299 (H1299): 5.15
pIC50 A2780 (A2780): 5.63
pIC50 SKOV3 (SKOV3): <5
pIC50 U87MG (U87MG): 5.55

CN1CCCNc2ncnc3c2C(=CNc2ccc(N4CCOCC4)c(c2)OCCCCCC1=O)C(=O)N3 (mixture of isomers) [Compound 120]
pIC50 PC-3 (PC-3): <5
PLK4 pIC50 (PLK4 (h)): 6.67
AuroraB pIC50 (AuroraB (h)): 5.58
pIC50 HCT-116 (HCT-116): 5.38
CDK1 pIC50 (CDK1/CyclinB (h)): 5.86
pIC50 MDA/MB231 (MDA/MB231): 5.03
GSK3B pIC50 (GSK3β (h)): 6.73
pIC50 H1299 (H1299): 5.68
pIC50 A2780 (A2780): 5.95
pIC50 SKOV3 (SKOV3): 5.02
pIC50 U87MG (U87MG): 5.99

CN1CCCNc2ncnc3c2C(=CNc2ccc(N4CCOCC4)c(c2)OCCCCC1=O)C(=O)N3 (mixture of isomers) [Compound 121]
pIC50 PC-3 (PC-3): 5.19
PLK4 pIC50 (PLK4 (h)): 7.22
AuroraB pIC50 (AuroraB (h)): 6.15
pIC50 HCT-116 (HCT-116): 5.99
CDK1 pIC50 (CDK1/CyclinB (h)): 6.24
pIC50 MDA/MB231 (MDA/MB231): 5.20
GSK3B pIC50 (GSK3β (h)): 7.45
pIC50 H1299 (H1299): 6.32
pIC50 A2780 (A2780): 6.48
pIC50 SKOV3 (SKOV3): 5.78
pIC50 U87MG (U87MG): 6.66

COc1ccc2cc1OCCCC(=O)N(C)CCN(C)C1CCN(CC1)c1ncnc3c1/C(=C/N2)C(=O)N3 [Compound 34]
IC50 (PLK4 (h)): > 10 µM
IC50 (Colo205): > 10 µM
IC50 (SK-N-SH): 5.25 µM
IC50 (MCF-7): > 10 µM
IC50 (A549): > 10 µM
IC50 (HT-29): ~8.32 µM
IC50 (DU-145): > 10 µM
IC50 (SKOV3): > 10 µM

CN1CCN(c2ccc3cc2CN(C)CCCC(=O)N(C)CCNc2ncnc4c2/C(=C/N3)C(=O)N4)CC1 [Compound 116]
IC50 (PC-3): > 10 µM
IC50 (PLK4 (h)): 5.89 µM
IC50 (AuroraB (h)): > 10 µM
IC50 (HCT-116): 6.46 µM
IC50 (CDK1/CyclinB (h)): > 10 µM
IC50 (MDA/MB231): 5.25 µM
IC50 (GSK3β (h)): 3.09 µM
IC50 (H1299): 9.77 µM
IC50 (A2780): 3.72 µM
IC50 (SKOV3): > 10 µM
IC50 (U87MG): 3.24 µM

COc1cc2cc(c1OC)CN(C)CCCC(=O)N(C)CCNc1ncnc3c1/C(=C/N2)C(=O)N3 [Compound 118]
IC50 (PC-3): > 10 µM
IC50 (PLK4 (h)): > 10 µM
IC50 (AuroraB (h)): > 10 µM
IC50 (HCT-116): > 10 µM
IC50 (CDK1/CyclinB (h)): > 10 µM
IC50 (MDA/MB231): > 10 µM
IC50 (GSK3β (h)): > 10 µM
IC50 (H1299): > 10 µM
IC50 (A2780): > 10 µM
IC50 (SKOV3): > 10 µM
IC50 (U87MG): > 10 µM

COc1cc2cc(c1OC)CN(C)CCCCC(=O)N(C)CCNc1ncnc3c1/C(=C/N2)C(=O)N3 [Compound 119]
IC50 (PC-3): > 10 µM
IC50 (PLK4 (h)): 7.41 µM
IC50 (AuroraB (h)): > 10 µM
IC50 (CDK1/CyclinB (h)): 6.31 µM
IC50 (MDA/MB231): > 10 µM
IC50 (GSK3β (h)): > 10 µM
IC50 (H1299): > 10 µM
IC50 (A2780): 2.57 µM
IC50 (SKOV3): > 10 µM
IC50 (U87MG): > 10 µM

CN1CCN(c2ccc3cc2CN(C)CCCCC(=O)N(C)CCCNc2ncnc4c2/C(=C/N3)C(=O)N4)CC1 [Compound 122]
IC50 (PC-3): 7.94 µM
IC50 (PLK4 (h)): 0.851 µM
IC50 (AuroraB (h)): > 10 µM
IC50 (CDK1/CyclinB (h)): 4.68 µM
IC50 (MDA/MB231): 1.95 µM
IC50 (GSK3β (h)): 0.575 µM
IC50 (H1299): 1.2 µM
IC50 (A2780): 0.288 µM
IC50 (SKOV3): 8.32 µM
IC50 (U87MG): 0.708 µM

COc1cc2cc(c1OC)CN(C)CC(=O)N(C)CCNc1ncnc3c1/C(=C/N2)C(=O)N3 [Compound 123]
IC50 (PC-3): > 10 µM
IC50 (PLK4 (h)): > 10 µM
IC50 (AuroraB (h)): > 10 µM
IC50 (HCT-116): > 10 µM
IC50 (CDK1/CyclinB (h)): > 10 µM
IC50 (MDA/MB231): > 10 µM
IC50 (GSK3β (h)): > 10 µM
IC50 (H1299): > 10 µM
IC50 (A2780): > 10 µM
IC50 (SKOV3): > 10 µM
IC50 (U87MG): > 10 µM

Reference: US8338422B2, “Indolin-2-ones and aza-indolin-2-ones” (Janssen Pharmaceutica NV, priority 2007, dated 2012)
